Measured values published in ChEMBL document CHEMBL1146371, “HSP90-like artificial chaperone activity based on indole beta-cyclodextrin” (Bioorg Med Chem, 2007).
Activity calls are given as the source filed them. No cut-off for these calls is given here.

Assay: Artificial […]-like chaperone activity assessed as prevention of citrate synthase thermal aggregation
Assay type: functional

Structure (SMILES)	Activity
OC[C@H]1O[C@@H]2O[C@H]3[C@H](O)[C@@H](O)[C@@H](O[C@H]4[C@H](O)[C@@H](O)[C@@H](O[C@H]5[C@H](O)[C@@H](O)[C@@H](O[C@H]6[C@H](O)[C@@H](O)[C@@H](O[C@H]7[C@H](O)[C@@H](O)[C@@H](O[C@H]1[C@H](O)[C@H]2O)O[C@@H]7CO)O[C@@H]6CO)O[C@@H]5CO)O[C@@H]4CO)O[C@@H]3CO	inactive
OC[C@H]1O[C@@H]2O[C@H]3[C@H](O)[C@@H](O)[C@@H](O[C@H]4[C@H](O)[C@@H](O)[C@@H](O[C@H]5[C@H](O)[C@@H](O)[C@@H](O[C@H]6[C@H](O)[C@@H](O)[C@@H](O[C@H]7[C@H](O)[C@@H](O)[C@@H](O[C@H]8[C@H](O)[C@@H](O)[C@@H](O[C@H]1[C@H](O)[C@H]2O)O[C@@H]8CO)O[C@@H]7CO)O[C@@H]6CO)O[C@@H]5CO)O[C@@H]4CO)O[C@@H]3CO	Active
